Source: patent publication US8420130B1, “Pharmaceutical formulation of a didemnin compound” (Pharma Mar S.A., priority 1998, dated 2013)

Assay: Solubility testing of aplidine
Format: physicochemical
Settings: water
Excerpt: The antitumour agent aplidine (dehydrodidemnin B) is a natural occurring cyclic depsipeptide isolated from the Mediterranean runicate Aplidium albicans. Aplidine has been characterised by using several chromatographic and spectrometric techniques. […] Moreover, the long-term stability of aplidine in solution is currently unknown.

Which aqueous solubility does the source give for dehydrodidemnin B [aplidine] here?
Its aqueous solubility is “poor aqueous solubility”.
